Laboratory results taken from patent US5041570A, “Photosensitive 4,4'-diazidostilbene derivative” (priority 1988, dated 1991).
Structures can show the parent of a compound that is named as a salt.

Columns and labels:
Type in all cases: physicochemical
[1] = Solubility of photosensitive agent in polyvinylpyrrolidone/ethylcellosolve solution; conditions: Table 2; 5 g polyvinylpyrrolidone in 106 g ethylcellosolve; sodium salt (*): solubility varied with crystal form
Protocol: The respective Amides synthesized in Examples 1 and 2 in amounts shown in Table 2 are dissolved in a solution comprising 5 g of polyvinylpyrrolidone (average molecular weight: 320,000) dissolved in 106 g of ethylcellosolve,to evaluate their solubility.

[2] = as above; conditions: Table 4; 5 g polyvinylpyrrolidone in 106 g ethylcellosolve; sodium salt (*): solubility varied with crystal form
Solubility in water [3] = experiment: Solubility in water
Protocol: (§1) The compounds shown in Table 7 were prepared using the same procedures as in Example 16, and each compound was measured for solubilities in 2.5% ethylcellosolve and water to obtain the results shown in Table 7.

[4] = Solubility in 2.5% ethylcellosolve; design: key to Solubility in 2.5% ethylcellosolve, 25° C. / Solubility in 2.5% ethylcellosolve, 60° C.: Good: completely soluble; Fair: with small amounts of undissolved portion; Poor: with large amounts of undissolved portion; conditions: for Solubility in 2.5% ethylcellosolve, 25° C. / Solubility in 2.5% ethylcellosolve, 60° C.: Table 7; for solubility (comparison in words): compared to Comparative Examples 14-16, Table 7
Protocol: as §1

Solubility in water [5] = experiment: Solubility in water; remark: listed apart in the source
[6] = Solubility in ethylcellosolve solution containing 4.5% polyvinylpyrrolidone and compatibility with binder polymers; conditions: Example 20
Text: A 4,4'-diazidostilbene-2,2'-disulfonic acid aqueous solution was obtained using the same procedures as in Example 15. It was mixed with dibutylamine and the pH value adjusted to 9.0 to deposit crystals. The crystals were filtered, washed with water, and dried to obtain dibutylamine salt of 4,4'-diazidostilbene-2,2'-disulfonic acid (yield: 91.2%).

[7] = listed as Comparative Example 16
[8] = listed as Comparative Example 15

[N-]=[N+]=Nc1ccc(C=Cc2ccc(N=[N+]=[N-])cc2S(=O)(=O)NCCCO)c(S(=O)(=O)NCCCO)c1 [Amide No. 1]
Solubility [1]: Good

[N-]=[N+]=Nc1ccc(C=Cc2ccc(N=[N+]=[N-])cc2S(=O)(=O)NCCO)c(S(=O)(=O)NCCO)c1 [Amide No. 2]
Solubility [1]: Good

CC(CCO)NS(=O)(=O)c1cc(N=[N+]=[N-])ccc1C=Cc1ccc(N=[N+]=[N-])cc1S(=O)(=O)NC(C)CCO (stereo not shown) [Amide No. 3]
Solubility [1]: Good

[N-]=[N+]=Nc1ccc(C=Cc2ccc(N=[N+]=[N-])cc2S(=O)(=O)NCCOCCO)c(S(=O)(=O)NCCOCCO)c1 [Amide No. 4]
Solubility [1]: Good

COCCOCCNS(=O)(=O)c1cc(N=[N+]=[N-])ccc1C=Cc1ccc(N=[N+]=[N-])cc1S(=O)(=O)NCCOCCOC [Amide No. 7]
Solubility [1]: Good

CCOCCNS(=O)(=O)c1cc(N=[N+]=[N-])ccc1C=Cc1ccc(N=[N+]=[N-])cc1S(=O)(=O)NCCOCC [Amide No. 8]
Solubility [1]: Good

CCCCCCCCNS(=O)(=O)c1cc(N=[N+]=[N-])ccc1C=Cc1ccc(N=[N+]=[N-])cc1S(=O)(=O)NCCCCCCCC [Amide No. 9]
Solubility [2]: Good

CC(C)CNS(=O)(=O)c1cc(N=[N+]=[N-])ccc1C=Cc1ccc(N=[N+]=[N-])cc1S(=O)(=O)NCC(C)C [Amide No. 10]
Solubility [2]: Good

CCCCCCCNS(=O)(=O)c1cc(N=[N+]=[N-])ccc1C=Cc1ccc(N=[N+]=[N-])cc1S(=O)(=O)NCCCCCCC [Amide No. 11]
Solubility [2]: Good

CCCCN(C)S(=O)(=O)c1cc(N=[N+]=[N-])ccc1C=Cc1ccc(N=[N+]=[N-])cc1S(=O)(=O)N(C)CCCC [Amide No. 14]
Solubility [2]: Good

CCCCCN(CCCCC)S(=O)(=O)c1cc(N=[N+]=[N-])ccc1C=Cc1ccc(N=[N+]=[N-])cc1S(=O)(=O)N(CCCCC)CCCCC [Amide No. 15]
Solubility [2]: Good

[N-]=[N+]=Nc1ccc(C=Cc2ccc(N=[N+]=[N-])cc2S(=O)(=O)O)c(S(=O)(=O)O)c1 [Ammonium salt, reference compound]
Solubility in water, 25° C. (Solubility in water [3]; Table 7, listed as Comparative Example 16): 18% | Solubility in 2.5% ethylcellosolve, 25° C. [4, 7]: Poor | Solubility in 2.5% ethylcellosolve, 60° C. [4, 7]: Poor | Solubility [2]: Poor | Solubility [1]: Poor | Solubility (water, 25° C.) (Solubility in water [5]; Table 5, listed as Comparative Example 12): 1.8%

[N-]=[N+]=Nc1ccc(C=Cc2ccc(N=[N+]=[N-])cc2S(=O)(=O)Nc2ccccc2)c(S(=O)(=O)Nc2ccccc2)c1 [Arylamide A, reference compound]
Solubility [1]: Poor

[N-]=[N+]=Nc1ccc(C=Cc2ccc(N=[N+]=[N-])cc2S(=O)(=O)Nc2ccccc2)c(S(=O)(=O)Nc2ccccc2)c1 [Arylamide B, reference compound]
Solubility [2]: Poor

CC1CC(=Cc2ccc(N=[N+]=[N-])cc2S(=O)(=O)O)C(=O)C(=Cc2ccc(N=[N+]=[N-])cc2S(=O)(=O)O)C1 (stereo not shown) [Comparative Example 13, Na salt of 2,6-bis(4'-azidobenzal)-4-methyl-cyclohexanone-2,2'-disulfonic acid, reference compound]
Solubility (water, 25° C.) (Solubility in water [5]; Table 6): 0.9%

CCOCCOS(=O)(=O)c1cc(N=[N+]=[N-])ccc1C=Cc1ccc(N=[N+]=[N-])cc1S(=O)(=O)OCCOCC [Ester B, reference compound]
Solubility [1]: Good

CCCCOS(=O)(=O)c1cc(N=[N+]=[N-])ccc1C=Cc1ccc(N=[N+]=[N-])cc1S(=O)(=O)OCCCC [Ester C, reference compound]
Solubility [2]: Good

[N-]=[N+]=Nc1ccc(C=Cc2ccc(N=[N+]=[N-])cc2S(=O)(=O)O)c(S(=O)(=O)O)c1 [Example 16]
Solubility (water, 25° C.) (Solubility in water [5]; Table 5): ≥ 10%

[N-]=[N+]=Nc1ccc(C=Cc2ccc(N=[N+]=[N-])cc2S(=O)(=O)O)c(S(=O)(=O)O)c1 [Example 17, triethylamine salt of 4,4'-diazidostilbene-2,2'-disulfonic acid]
Solubility (water, 25° C.) (Solubility in water [5]; Table 5): ≥ 10%

CC1CC(=Cc2ccc(N=[N+]=[N-])cc2S(=O)(=O)O)C(=O)C(=Cc2ccc(N=[N+]=[N-])cc2S(=O)(=O)O)C1 (stereo not shown) [Example 18]
Solubility (water, 25° C.) (Solubility in water [5]; Table 6): 7.0%

CC1CC(=Cc2ccc(N=[N+]=[N-])cc2S(=O)(=O)O)C(=O)C(=Cc2ccc(N=[N+]=[N-])cc2S(=O)(=O)O)C1 (stereo not shown) [Example 19, triethylamine salt of 2,6-bis-(4'-azidobenzal)-4-methyl-cyclohexanone-2,2'-disulfonic acid]
Solubility (water, 25° C.) (Solubility in water [5]; Table 6): ≥ 10%

[N-]=[N+]=Nc1ccc(C=Cc2ccc(N=[N+]=[N-])cc2S(=O)(=O)O)c(S(=O)(=O)O)c1 [Example 20, dibutylamine salt of 4,4'-diazidostilbene-2,2'-disulfonic acid]
compatibility with binder polymers [6]: high in compatibility with binder polymers | soluble in an ethylcellosolve solution containing 4.5% polyvinylpyrrolidone [6]: ≥ 5% | solubility in water (in words) (Solubility in water [5]; Example 20): very low in solubility in water

[N-]=[N+]=Nc1ccc(C=Cc2ccc(N=[N+]=[N-])cc2S(=O)(=O)O)c(S(=O)(=O)O)c1 [Example 21]
Solubility in water, 25° C. (Solubility in water [3]; Table 7): 6.5% | Solubility in 2.5% ethylcellosolve, 25° C. [4]: Good | Solubility in 2.5% ethylcellosolve, 60° C. [4]: Good | solubility (comparison in words) [4]: good solubilities

[N-]=[N+]=Nc1ccc(C=Cc2ccc(N=[N+]=[N-])cc2S(=O)(=O)O)c(S(=O)(=O)O)c1 [Example 22]
Solubility in water, 25° C. (Solubility in water [3]; Table 7): ≥ 10% | Solubility in 2.5% ethylcellosolve, 25° C. [4]: Good | Solubility in 2.5% ethylcellosolve, 60° C. [4]: Good | solubility (comparison in words) [4]: good solubilities

CCCNS(=O)(=O)c1cc(N=[N+]=[N-])ccc1C=Cc1ccc(N=[N+]=[N-])cc1S(=O)(=O)NCCC [Lower alkyl amide A, reference compound]
Solubility [2]: Poor

[N-]=[N+]=Nc1ccc(C=Cc2ccc(N=[N+]=[N-])cc2S(=O)(=O)[O-])c(S(=O)(=O)[O-])c1.[Na+].[Na+] [Sodium salt, sodium 4,4'-diazidostilbene-2,2'-disulfonate, reference compound]
Solubility in 2.5% ethylcellosolve, 25° C. [4]: Fair | Solubility in 2.5% ethylcellosolve, 60° C. [4]: Good | Solubility [2]: Fair | Solubility [1]: Fair | Solubility (water, 25° C.) (Solubility in water [5]; Table 5): 3.3%

[N-]=[N+]=Nc1ccc(C=Cc2ccc(N=[N+]=[N-])cc2S(=O)(=O)O)c(S(=O)(=O)O)c1 [compound 11, reference compound]
Solubility in 2.5% ethylcellosolve, 25° C. [4, 8]: Poor | Solubility in 2.5% ethylcellosolve, 60° C. [4, 8]: Poor | Solubility (water, 25° C.) (Solubility in water [5]; Table 5): 3.0%
